Data as given in ChEMBL document CHEMBL4706630, “Modulation of the G-Protein-Coupled Receptor 84 (GPR84) by Agonists and Antagonists” (J Med Chem, 2020).

Legend:
[1] = biological target: T1, G-protein coupled receptor 84 (Homo sapiens, UniProt Q9NQS5); test: (§1) Antagonist activity at recombinant human N-terminal epitope tagged/eYFP-fused FLAG-tagged GPR84 expressed in Flp-In TREx 293 cells assessed as inhibition of embelin-induced [35S]GTPgammaS binding pre-incubated for 15 mins followed by [35S]GTPgammaS addition and measured after 45 mins by liquid scintillation spectrometry; format: functional, cell-based, Flp-In-T-REx-293
[2] = biological target: T1, G-protein coupled receptor 84; test: as §1, with “decanoic acid-induced” for “embelin-induced”; format: functional, cell-based, Flp-In-T-REx-293
[3] = biological target: T1, G-protein coupled receptor 84; test: as §1, with “DIM-induced” for “embelin-induced”; format: functional, cell-based, Flp-In-T-REx-293
[4] = biological target: T1, G-protein coupled receptor 84; test: (§2) Antagonist activity at GPR84 in LPS-treated human THP-1 cell membrane assessed as reduction in ZQ-16-induced stimulation of [35S]GTPgammaS binding preincubated for 15 mins followed by ZQ-16 addition and subsequent addition of [35S]GTPgammaS measured after 60 mins by liquid scintillation spectroscopy; format: functional
[5] = biological target: T2, G-protein coupled receptor 84 (Mus musculus, UniProt Q8CIM5); test: (§3) Antagonist activity at mouse Galphai2-coupled GPR84 expressed in human Flp-In-T-REx-293 cell membrane assessed as reduction in PSB-16671-induced stimulation of [35S]GTPgammaS binding preincubated for 15 mins followed by PSB-16671 addition and subsequent addition of [35S]GTPgammaS measured after 60 mins by liquid scintillation spectroscopy; format: functional, cell membranes
[6] = biological target: T1, G-protein coupled receptor 84; test: as §3, with “human Flag-tagged Gialpha-coupled” for “mouse Galphai2-coupled”; format: functional, cell membranes
[7] = biological target: T1, G-protein coupled receptor 84; test: as §2, with “PSB-16671-induced” for “ZQ-16-induced”, “PSB-16671” for “ZQ-16”; format: functional
[8] = biological target: T2, G-protein coupled receptor 84; test: Antagonist activity at GPR84 in LPS-treated mouse RAW 264.7 cell membrane assessed as reduction in PSB-16671-induced stimulation of [35S]GTPgammaS binding preincubated for 15 mins followed by PSB-16671 addition and subsequent addition of [35S]GTPgammaS measured after 60 mins by liquid scintillation spectroscopy; format: functional, cell membranes, RAW264.7
[9] = biological target: T1, G-protein coupled receptor 84; test: Agonist activity at human GPR84 expressed in CHO cell membranes assessed as induction of [35S]GTPgammaS incorporation incubated for 1 hr by liquid scintillation counting method; format: functional, Cell membrane
[10] = biological target: T1, G-protein coupled receptor 84; test: Agonist activity at human GPR84 expressed in CHO cells assessed as reduction in forskolin-stimulated cAMP production preincubated for 20 mins followed by forskolin stimulation and measured after 20 mins by cAMP assay; format: functional, cell-based
[11] = biological target: T2, G-protein coupled receptor 84; test: Agonist activity at GPR84 in mouse bone-marrow-derived neutrophils assessed as stimulation of [35S]GTPgammaS binding incubated for 60 mins by liquid scintillation spectroscopy; format: functional, tissue-based, Neutrophil
[12] = biological target: T1, G-protein coupled receptor 84; test: Antagonist activity at human GPR84 expressed in CHO-K1 cells assessed as reduction in 6-OAU-induced inhibition of forskolin stimulated cAMP production preincubated for 15 mins followed by forskolin and 6-OAU stimulation and measured after 30 mins by luminescence method; format: functional, cell-based
[13] = biological target: T1, G-protein coupled receptor 84; test: Agonist activity at human Gialpha-coupled GPR84 expressed in baculovirus infected sf9 insect cells assessed as induction of [35S]GTPgammaS incubated for 1 hr by liquid scintillation counting method; format: functional

T2 sequence (Q8CIM5 whole entry): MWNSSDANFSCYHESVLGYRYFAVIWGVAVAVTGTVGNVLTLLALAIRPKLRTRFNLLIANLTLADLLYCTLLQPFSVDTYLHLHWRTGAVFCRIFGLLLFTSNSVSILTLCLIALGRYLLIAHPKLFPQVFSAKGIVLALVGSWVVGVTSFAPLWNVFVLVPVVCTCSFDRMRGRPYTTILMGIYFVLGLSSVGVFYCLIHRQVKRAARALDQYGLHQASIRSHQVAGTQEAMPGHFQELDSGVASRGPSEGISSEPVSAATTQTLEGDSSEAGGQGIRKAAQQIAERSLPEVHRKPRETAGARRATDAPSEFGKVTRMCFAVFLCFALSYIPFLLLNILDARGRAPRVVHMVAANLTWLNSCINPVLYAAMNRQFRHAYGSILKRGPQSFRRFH
T1 sequence (Q9NQS5 whole entry, the tested form may be a part): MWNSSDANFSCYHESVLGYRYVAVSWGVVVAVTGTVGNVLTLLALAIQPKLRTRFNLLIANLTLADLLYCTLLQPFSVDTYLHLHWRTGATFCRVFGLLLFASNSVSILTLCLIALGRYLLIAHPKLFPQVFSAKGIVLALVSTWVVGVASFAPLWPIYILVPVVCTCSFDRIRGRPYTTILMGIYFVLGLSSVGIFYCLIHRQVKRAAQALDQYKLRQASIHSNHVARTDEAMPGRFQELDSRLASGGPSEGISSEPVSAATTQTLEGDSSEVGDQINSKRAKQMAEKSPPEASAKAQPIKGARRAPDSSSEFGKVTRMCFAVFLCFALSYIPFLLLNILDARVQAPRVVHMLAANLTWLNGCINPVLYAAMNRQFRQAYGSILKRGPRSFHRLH

O=c1nc(OC[C@@H]2COCCO2)cc2n1CCc1cc(COCC3CCOCC3)ccc1-2
IC50 [1]: 83 nM
IC50 [2]: 168 nM
IC50 [3]: 55 nM

O=c1nc(OCC2COCCO2)cc2n1CCc1cc(C#CCNc3ccccc3)ccc1-2 (stereo not given)
IC50 [4]: 14 nM
IC50 [5]: 68 nM
IC50 [1]: 22 nM
IC50 [2]: 25 nM
IC50 [3]: 21 nM
IC50 [6]: 0.9 nM
IC50 [7]: 4.8 nM
IC50 [8]: 145 nM

CCCCCCCCC(=O)O [NONANOATE]
EC50 [9]: 70.2 µM
EC50 [10]: 52.3 µM

Fc1cc(F)c2[nH]cc(Cc3c[nH]c4c(F)cc(F)cc34)c2c1
EC50 [11]: 2880 nM

O=c1nc(OCC2COCCO2)cc2n1CCc1cc(OCc3ccccn3)ccc1-2 (stereo not given)
IC50 [12]: 260 nM

CCCCCCSc1nc(O)cc(O)n1
EC50 [11]: 12.9 nM

CCCCCCCCCC(O)CC(=O)O (stereo not given)
EC50 [13]: 13 µM

O=c1nc(OC[C@H]2COCCO2)cc2n1CCc1cc(OCc3noc(C4CC4)n3)ccc1-2
IC50 [1]: 14 nM
IC50 [2]: 28 nM
IC50 [3]: 86 nM
